Patent US20240360148A1 (SUVALENT THERAPEUTICS, INC., priority 2021, published 2024)
In brackets after ≈: the same amount, converted by molar mass. Where two headings read alike, the source gives them in different places.

Columns and labels:
SAE1 = SAE1 (Homo sapiens (Human), UniProt Q9UBE0+Q9UBT2); test: SAE High Throughput Biochemical Assay (HTRF), 15 min preincubation; conditions: read-out: 15 min preincubation HTRF IC50 (μM) Ave, SAE1 12.5 nM, ATP 100 μM
Summary of the method: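 HTRF detection of SUMO transfer from SUMO-GST to UBC9-His (40 nM each) by SAE1 at 12.5 nM used 100 μM ATP in pH 7.5 HEPES buffer with 10 mM MgCl2 and 0.1% BSA. Enzyme and compound were preincubated 15 min at RT and the reaction ran 45 min, with readings after 2 h and overnight.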

[1] = Plasma protein binding, equilibrium dialysis, mouse plasma; format: in vitro ADME; conditions: 5 hours at 37° C., read-out: PPB % bound Mouse (converted)
Procedure: (§1) The compounds of interest were evaluated for various PK parameters. Specifically CACO permeability/efflux and plasma protein binding (PPP) were determined. Stock solutions were prepared at 10 mM in DMSO for test and reference compounds. Aliquots of the stock solution were diluted to 500× of final concentration (0.5 mM) with DMSO, then further diluted upon the addition of bank PE3-buffer to 20× of final concentration (20 μM). Then test and reference compounds were prepared in plasma at 1 μM. For 0 hour incubation: 25 μL of the plasma spiked with test and reference compounds was transferred into a 96-well sample preparation plate, and then 25 μL blank PB-buffer was added. The samples were quenched by 200 μL of IS solution to prepare [Initial]0h samples. For 5 hours incubation: 100 μL of the plasma spiking with test and reference compounds was loaded on donor side, and 100 μL of blank PB-buffer were loaded on receiver side of the equilibrium dialysis device. Samples were incubated in an air-bath shaker (60 rpm) for 5 hours at 37° C. After 5 hours incubation, 25 μL of samples (from both the donor sides and receiver sides of the dialysis apparatus) was aspirated and added into new sample preparation plates, separately. 25 μL of blank PB-buffer was added to donor side samples and 25 μL of blank plasma was added to receiver side samples to balance the matrix. The samples were quenched with 200 μL of IS solution. The assay plate was shaken at the vibrator (Hangzhou Allsheng, MX100-4A) for 10 min (600 rpm) and then centrifuged at 5,594×g for 15 min (Thermo Multifuge×3R). An aliquot of the 50 μL supernatant was taken from each well and diluted by 50 μL distilled water, then analyzed by UPLC-MS/MS.

[2] = Plasma protein binding, equilibrium dialysis, human plasma; format: in vitro ADME; conditions: 5 hours at 37° C., read-out: PPB % bound Human (converted)
Procedure: as §1

Solubility Evaluation = format: physicochemical; conditions: kinetic from dmso stock, 1 hour at RT
Procedure: The compounds of interest were evaluated for their solubility in various biological solutions. Specifically, aliquots (8 μL) of reference and test compound stock solutions (10 mM) were added into 792 μL of buffer (PBS, pH7.4, FaSSIF, pH 6.5, or FaSSGF, pH 1.6) respectively (Final DMSO conc.: 1%). Sample tubes were shaken for 1 hour (1000 rpm) at RT. The experiment was calibrated using 300 μM spiked solution (SS) in MeOH/CAN (4:1) by adding 6 μL of 10 mM compound stock solution in 194 μL MeOH/ACN(4:1) ranging from 60 μM to 0.02 μM. The samples were centrifuged (10 min-12000 rpm) to precipitate un-dissolved particles. The supernatants were transferred to a new tube or plate. Supernatants were diluted 10 times and 100 times with 100 mM buffer then analyzed by LC-MS/MS. SGF=simulated gastric fluid, SIF=simulated intestinal fluid, PBS=phosphate buffered saline pH 7.4 Values are noted in μM.

[3] = PBS (phosphate buffered saline), aqueous buffer, phosphate buffered saline pH 7.4, 1% DMSO, read-out: Solubilities PBS
[4] = simulated intestinal fluid (FaSSIF, pH 6.5), 1% DMSO, read-out: Solubilities SIF

SAE1, sequence (Q9UBE0 whole entry): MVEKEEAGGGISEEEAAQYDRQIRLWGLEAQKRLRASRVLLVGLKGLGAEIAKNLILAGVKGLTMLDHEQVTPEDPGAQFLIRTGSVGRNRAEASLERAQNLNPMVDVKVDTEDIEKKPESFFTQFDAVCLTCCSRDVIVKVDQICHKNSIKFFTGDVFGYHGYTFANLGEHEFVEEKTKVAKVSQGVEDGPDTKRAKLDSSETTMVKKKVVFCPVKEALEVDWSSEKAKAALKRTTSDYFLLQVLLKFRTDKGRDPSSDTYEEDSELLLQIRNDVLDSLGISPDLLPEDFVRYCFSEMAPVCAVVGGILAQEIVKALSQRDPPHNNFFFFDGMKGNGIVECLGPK
SAE1, sequence (Q9UBT2 whole entry): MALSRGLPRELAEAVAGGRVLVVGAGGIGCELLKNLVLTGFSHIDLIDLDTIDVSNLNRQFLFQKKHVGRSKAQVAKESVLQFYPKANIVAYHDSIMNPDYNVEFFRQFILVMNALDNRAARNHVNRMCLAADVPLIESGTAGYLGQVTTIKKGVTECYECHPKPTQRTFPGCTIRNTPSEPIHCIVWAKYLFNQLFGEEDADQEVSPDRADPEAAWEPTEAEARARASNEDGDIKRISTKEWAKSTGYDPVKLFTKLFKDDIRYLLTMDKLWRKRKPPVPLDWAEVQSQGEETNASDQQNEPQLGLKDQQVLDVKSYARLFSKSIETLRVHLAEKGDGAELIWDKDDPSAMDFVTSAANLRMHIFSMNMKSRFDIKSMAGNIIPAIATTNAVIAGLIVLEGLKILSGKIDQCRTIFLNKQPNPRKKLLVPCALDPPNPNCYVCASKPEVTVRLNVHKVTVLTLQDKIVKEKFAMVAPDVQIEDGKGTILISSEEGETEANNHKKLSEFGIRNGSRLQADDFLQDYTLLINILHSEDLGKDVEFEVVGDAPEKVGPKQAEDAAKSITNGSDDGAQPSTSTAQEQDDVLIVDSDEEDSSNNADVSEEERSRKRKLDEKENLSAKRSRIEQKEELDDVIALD

Row | SMILES | IC50 (SAE1) [µM] | fraction unbound at 5 h, 1 μM [1] | fraction unbound at 5 h, 1 μM [2] | solubility at 1 h (Solubility Evaluation; [3]) [µM] | solubility at 1 h (Solubility Evaluation; [4]) [µM]
1 | C=CC(=O)N1Cc2sc(C#N)c(C)c2[C@H](c2cccc(F)c2-c2cn(CC)nc2C(F)(F)F)C1 [Compound 222] | 0.1 | 0.005 | 0.008 | 41 (≈ 20 µg/mL) | 29 (≈ 14.2 µg/mL)
2 | CCn1cc(-c2c(F)cccc2[C@@H]2CN(C(=O)/C=C/CN(C)C)Cc3sc(C#N)c(C)c32)c(C(F)(F)F)n1 [Example 46, (S, E)-6-(4-(dimethylamino)but-2-enoyl)-4-(2-(1-ethyl-3-(trifluoromethyl)-1 H-pyrazol-4-yl)-3-fluorophenyl)-3-methyl-4,5,6,7-tetrahydrothieno[2,3-c]pyridine-2-carbonitrile] | 0.2 | 0.013 | 0.028 | 97 (≈ 52.9 µg/mL) | > 100
3 | CCn1cc(-c2c(F)cccc2[C@@H]2CN(C(=O)/C=C/CNC)Cc3sc(C#N)cc32)c(C(F)(F)F)n1 [Example 50] | 0.51 | 0.039 | 0.033 | 30 (≈ 15.5 µg/mL) | 28 (≈ 14.5 µg/mL)
